Test results taken from PMC11345841, “Exploring 2-Sulfonylpyrimidine Warheads as Acrylamide Surrogates for Targeted Covalent Inhibition: A BTK Story” (Journal of Medicinal Chemistry, 2024).
Read-outs that look alike come from different tables or passages of the source.

Columns and labels:
Experiment in all cases: KINOMEscan ScanTK
Assay type in all cases: binding
[1] = target: T1, ABL1(F317I)-nonphosphorylated (Homo sapiens, UniProt P00519, F317I)
T1 construct: purchased Eurofins DiscoverX KINOMEscan (scanTK)

[2] = target: T2, ABL1(F317I)-phosphorylated (Homo sapiens, UniProt P00519, F317I)
T2 construct: purchased Eurofins DiscoverX KINOMEscan (scanTK)

[3] = target: T3, DDR2 (Homo sapiens, UniProt Q16832); conditions: DDR2
T3 construct: purchased Eurofins DiscoverX KINOMEscan (scanTK)
T3 sequence (Q16832 22-855): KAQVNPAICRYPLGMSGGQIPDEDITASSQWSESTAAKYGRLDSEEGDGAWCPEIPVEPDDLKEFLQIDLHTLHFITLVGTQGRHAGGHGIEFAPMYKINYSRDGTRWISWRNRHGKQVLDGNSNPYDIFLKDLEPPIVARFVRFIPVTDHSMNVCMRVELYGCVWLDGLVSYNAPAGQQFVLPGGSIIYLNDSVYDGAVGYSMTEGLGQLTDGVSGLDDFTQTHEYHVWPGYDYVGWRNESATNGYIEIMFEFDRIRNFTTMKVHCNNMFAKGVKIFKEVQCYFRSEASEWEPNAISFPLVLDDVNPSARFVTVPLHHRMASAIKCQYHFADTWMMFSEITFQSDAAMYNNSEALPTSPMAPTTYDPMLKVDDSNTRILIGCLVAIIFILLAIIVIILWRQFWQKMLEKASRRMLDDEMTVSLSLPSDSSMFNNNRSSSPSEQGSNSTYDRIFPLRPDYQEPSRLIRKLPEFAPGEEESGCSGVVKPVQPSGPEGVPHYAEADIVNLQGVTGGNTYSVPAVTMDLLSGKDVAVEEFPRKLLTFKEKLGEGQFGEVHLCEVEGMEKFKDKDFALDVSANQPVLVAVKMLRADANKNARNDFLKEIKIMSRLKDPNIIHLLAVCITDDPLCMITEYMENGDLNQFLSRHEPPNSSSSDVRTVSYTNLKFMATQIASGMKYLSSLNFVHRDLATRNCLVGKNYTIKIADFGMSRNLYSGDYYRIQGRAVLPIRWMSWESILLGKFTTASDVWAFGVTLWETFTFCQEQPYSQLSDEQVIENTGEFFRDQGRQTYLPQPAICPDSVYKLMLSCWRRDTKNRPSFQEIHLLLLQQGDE

[4] = target: T4, EGFR (Homo sapiens, UniProt P00533); conditions: for difference in %Control versus reference compound Ib at 1 µM / remaining binding at 1 µM: EGFR; for inhibition at 1 µM: ScanTK, WT EGFR
T4 construct: purchased Eurofins DiscoverX KINOMEscan (scanTK)

[5] = system: EGFR(L747-T751del,Sins); conditions: for % difference (compound - Ib %Control) / %Control: @1000nM
[6] = target: T5, EGFR(L858R,T790M) (Homo sapiens, UniProt P00533, L858R/T790M)
T5 construct: purchased Eurofins DiscoverX KINOMEscan (scanTK)

[7] = target: T6, EPHA5 (Homo sapiens, UniProt P54756)
T6 construct: purchased Eurofins DiscoverX KINOMEscan (scanTK)

[8] = target: T7, FGFR1 (Homo sapiens, UniProt P11362)
T7 construct: purchased Eurofins DiscoverX KINOMEscan (scanTK)

[9] = target: T8, FGFR2 (Homo sapiens, UniProt P21802)
T8 construct: purchased Eurofins DiscoverX KINOMEscan (scanTK)

[10] = target: T9, FGFR3(G697C) (Homo sapiens, UniProt P22607, G697C)
T9 construct: purchased Eurofins DiscoverX KINOMEscan (scanTK)

[11] = target: T10, KIT(A829P) (Homo sapiens, UniProt P10721, A829P)
T10 construct: purchased Eurofins DiscoverX KINOMEscan (scanTK)

[12] = target: T11, MST1R (Homo sapiens, UniProt Q04912)
T11 construct: purchased Eurofins DiscoverX KINOMEscan (scanTK)

[13] = target: T12, TRKB (Homo sapiens, UniProt Q16620); conditions: TRKB
T12 construct: purchased Eurofins DiscoverX KINOMEscan (scanTK)

T7 sequence (P11362 22-822): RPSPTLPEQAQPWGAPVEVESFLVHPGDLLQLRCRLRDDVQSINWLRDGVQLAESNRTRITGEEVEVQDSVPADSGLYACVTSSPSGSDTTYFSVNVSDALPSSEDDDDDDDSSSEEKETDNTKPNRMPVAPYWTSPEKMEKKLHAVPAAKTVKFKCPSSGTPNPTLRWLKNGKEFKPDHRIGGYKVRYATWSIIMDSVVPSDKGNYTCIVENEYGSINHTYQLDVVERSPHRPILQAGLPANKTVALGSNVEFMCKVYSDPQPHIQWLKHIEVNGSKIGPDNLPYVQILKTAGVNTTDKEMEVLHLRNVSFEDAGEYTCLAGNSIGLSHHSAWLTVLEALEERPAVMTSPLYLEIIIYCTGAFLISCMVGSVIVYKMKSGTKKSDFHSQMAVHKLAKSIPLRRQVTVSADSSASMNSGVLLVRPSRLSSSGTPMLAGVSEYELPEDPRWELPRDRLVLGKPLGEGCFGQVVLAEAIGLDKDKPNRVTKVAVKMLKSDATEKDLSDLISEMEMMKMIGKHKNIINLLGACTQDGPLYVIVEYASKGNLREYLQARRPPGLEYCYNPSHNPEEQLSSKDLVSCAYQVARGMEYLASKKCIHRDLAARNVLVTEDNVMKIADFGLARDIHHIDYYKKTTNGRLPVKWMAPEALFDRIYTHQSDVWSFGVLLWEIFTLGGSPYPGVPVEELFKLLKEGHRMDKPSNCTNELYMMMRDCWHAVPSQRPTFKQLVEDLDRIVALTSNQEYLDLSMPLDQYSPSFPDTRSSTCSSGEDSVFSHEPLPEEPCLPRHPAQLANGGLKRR
T5 sequence (P00533 25-1210 T790M/L858R): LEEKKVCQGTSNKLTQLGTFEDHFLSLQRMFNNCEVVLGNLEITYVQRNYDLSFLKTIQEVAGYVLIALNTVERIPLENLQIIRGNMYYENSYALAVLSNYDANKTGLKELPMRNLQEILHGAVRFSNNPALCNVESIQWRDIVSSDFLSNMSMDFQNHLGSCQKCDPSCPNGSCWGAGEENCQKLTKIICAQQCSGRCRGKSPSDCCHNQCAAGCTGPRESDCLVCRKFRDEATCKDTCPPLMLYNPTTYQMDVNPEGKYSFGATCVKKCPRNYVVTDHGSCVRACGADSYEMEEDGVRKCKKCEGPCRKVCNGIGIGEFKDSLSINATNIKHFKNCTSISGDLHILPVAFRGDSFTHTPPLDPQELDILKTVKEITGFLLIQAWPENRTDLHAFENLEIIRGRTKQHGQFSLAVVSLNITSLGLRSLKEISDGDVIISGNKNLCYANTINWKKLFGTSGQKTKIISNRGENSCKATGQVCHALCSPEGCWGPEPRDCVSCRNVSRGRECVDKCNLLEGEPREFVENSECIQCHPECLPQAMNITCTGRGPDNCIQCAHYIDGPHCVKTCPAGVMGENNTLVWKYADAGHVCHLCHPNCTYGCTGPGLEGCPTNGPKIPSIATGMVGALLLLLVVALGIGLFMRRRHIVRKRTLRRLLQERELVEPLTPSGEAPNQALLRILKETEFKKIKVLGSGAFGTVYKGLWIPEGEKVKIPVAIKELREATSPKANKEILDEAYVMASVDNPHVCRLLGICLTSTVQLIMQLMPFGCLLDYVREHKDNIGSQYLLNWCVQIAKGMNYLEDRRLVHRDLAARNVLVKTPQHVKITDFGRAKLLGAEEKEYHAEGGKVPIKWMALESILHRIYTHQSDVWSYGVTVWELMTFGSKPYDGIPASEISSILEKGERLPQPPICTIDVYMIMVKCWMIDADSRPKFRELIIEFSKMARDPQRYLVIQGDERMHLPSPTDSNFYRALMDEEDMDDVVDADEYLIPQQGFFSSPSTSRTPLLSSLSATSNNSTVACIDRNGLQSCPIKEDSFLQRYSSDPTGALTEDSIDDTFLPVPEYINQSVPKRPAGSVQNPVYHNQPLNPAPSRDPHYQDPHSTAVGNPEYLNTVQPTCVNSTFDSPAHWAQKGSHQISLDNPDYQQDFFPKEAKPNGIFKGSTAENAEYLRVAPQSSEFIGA
T2 sequence (P00519 whole entry F317I): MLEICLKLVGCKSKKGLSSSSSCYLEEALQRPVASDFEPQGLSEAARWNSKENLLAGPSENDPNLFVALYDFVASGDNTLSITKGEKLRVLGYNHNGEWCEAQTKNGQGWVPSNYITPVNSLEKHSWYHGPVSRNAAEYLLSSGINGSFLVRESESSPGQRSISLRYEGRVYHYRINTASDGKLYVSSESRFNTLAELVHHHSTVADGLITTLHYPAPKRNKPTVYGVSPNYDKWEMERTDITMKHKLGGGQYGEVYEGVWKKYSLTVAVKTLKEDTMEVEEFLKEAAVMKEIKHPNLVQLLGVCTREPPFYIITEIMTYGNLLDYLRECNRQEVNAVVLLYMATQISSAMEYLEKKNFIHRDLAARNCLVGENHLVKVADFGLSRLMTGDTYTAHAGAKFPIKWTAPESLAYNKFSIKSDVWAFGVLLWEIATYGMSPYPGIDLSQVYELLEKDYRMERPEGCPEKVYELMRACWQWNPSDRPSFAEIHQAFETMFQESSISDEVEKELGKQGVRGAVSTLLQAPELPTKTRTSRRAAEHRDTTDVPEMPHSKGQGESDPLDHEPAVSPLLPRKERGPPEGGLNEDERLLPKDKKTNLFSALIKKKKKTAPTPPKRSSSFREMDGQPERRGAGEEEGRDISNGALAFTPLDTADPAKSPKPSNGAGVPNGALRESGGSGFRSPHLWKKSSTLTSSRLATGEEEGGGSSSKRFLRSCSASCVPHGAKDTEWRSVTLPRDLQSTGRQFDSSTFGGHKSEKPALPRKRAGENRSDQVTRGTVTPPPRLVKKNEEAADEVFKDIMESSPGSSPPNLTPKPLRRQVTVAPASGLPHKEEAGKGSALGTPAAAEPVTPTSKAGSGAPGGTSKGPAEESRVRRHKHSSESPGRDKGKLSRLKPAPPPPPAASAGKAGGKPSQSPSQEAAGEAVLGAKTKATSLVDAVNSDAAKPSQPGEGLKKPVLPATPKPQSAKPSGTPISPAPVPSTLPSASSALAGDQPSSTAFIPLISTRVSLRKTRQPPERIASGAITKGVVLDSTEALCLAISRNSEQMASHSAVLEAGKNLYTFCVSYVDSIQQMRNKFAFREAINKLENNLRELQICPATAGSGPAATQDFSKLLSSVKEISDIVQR
T1 sequence (P00519 whole entry F317I): as above
T9 sequence (P22607 23-806 G697C): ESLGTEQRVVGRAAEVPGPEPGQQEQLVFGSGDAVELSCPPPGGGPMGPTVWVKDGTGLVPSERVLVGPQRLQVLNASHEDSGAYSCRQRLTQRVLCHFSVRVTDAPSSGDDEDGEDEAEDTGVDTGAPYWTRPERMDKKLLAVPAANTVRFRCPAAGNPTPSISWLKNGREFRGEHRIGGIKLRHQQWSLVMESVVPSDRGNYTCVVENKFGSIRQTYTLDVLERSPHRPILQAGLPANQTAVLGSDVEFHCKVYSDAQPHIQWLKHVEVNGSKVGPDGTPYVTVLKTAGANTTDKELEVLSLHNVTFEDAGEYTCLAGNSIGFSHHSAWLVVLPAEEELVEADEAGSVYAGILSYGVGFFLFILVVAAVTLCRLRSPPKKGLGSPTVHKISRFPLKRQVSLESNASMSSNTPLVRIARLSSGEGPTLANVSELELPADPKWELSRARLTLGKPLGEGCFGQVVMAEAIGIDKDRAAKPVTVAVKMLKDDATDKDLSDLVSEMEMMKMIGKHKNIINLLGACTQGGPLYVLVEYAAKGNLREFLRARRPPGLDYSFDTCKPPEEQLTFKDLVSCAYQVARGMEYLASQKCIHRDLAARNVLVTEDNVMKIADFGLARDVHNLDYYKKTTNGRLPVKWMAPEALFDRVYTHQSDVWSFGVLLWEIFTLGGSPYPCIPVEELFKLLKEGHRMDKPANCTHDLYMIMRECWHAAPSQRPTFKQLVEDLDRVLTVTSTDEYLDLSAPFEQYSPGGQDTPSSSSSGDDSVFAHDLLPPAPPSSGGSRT
T10 sequence (P10721 26-976 A829P): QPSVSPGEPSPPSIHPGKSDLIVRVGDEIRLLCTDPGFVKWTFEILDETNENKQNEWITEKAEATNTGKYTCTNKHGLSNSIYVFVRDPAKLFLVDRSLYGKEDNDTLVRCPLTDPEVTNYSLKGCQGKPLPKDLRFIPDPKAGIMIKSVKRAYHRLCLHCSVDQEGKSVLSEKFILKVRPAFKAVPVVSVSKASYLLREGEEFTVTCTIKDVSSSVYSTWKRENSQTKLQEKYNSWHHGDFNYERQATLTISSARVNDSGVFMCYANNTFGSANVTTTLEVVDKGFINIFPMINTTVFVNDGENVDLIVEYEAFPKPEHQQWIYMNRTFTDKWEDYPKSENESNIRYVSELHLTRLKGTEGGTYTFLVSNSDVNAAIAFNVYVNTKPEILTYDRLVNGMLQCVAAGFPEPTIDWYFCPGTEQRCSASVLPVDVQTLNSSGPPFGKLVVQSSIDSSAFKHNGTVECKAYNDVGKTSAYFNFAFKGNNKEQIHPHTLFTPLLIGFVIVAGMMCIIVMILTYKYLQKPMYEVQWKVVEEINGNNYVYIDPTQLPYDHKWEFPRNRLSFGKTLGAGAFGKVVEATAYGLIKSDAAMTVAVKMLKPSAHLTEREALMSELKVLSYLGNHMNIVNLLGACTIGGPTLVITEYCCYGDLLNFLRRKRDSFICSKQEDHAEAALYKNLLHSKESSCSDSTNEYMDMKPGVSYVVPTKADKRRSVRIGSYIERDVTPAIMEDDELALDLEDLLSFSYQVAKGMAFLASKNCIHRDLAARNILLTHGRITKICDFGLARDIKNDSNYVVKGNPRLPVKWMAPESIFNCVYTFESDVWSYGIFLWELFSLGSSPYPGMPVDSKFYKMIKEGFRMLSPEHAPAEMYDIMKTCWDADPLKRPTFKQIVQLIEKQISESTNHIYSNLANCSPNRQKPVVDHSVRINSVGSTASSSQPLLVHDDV

CCOC(=O)c1cnc(S(C)(=O)=O)nc1N1CCC[C@@H](n2nc(-c3ccc(Oc4ccccc4)cc3)c3c(N)ncnc32)C1 [Compound 8c, Ethyl (R)-4-(3-(4-Amino-3-(4-phenoxyphenyl)-1H-pyrazolo[3,4-d]pyrimidin-1-yl)piperidin-1-yl)-2-(methylsulfonyl)pyrimidine-5-carboxylate]
difference in %Control versus compound Ib at 1 µM ([1]; @1000nM): 46%
remaining binding at 1 µM ([1]; @1000nM, read-out: %Control): 98%
remaining binding at 1 µM ([1]; read-out: %Control @1000nM): 98%
difference in %Control from reference compound Ib at 1 µM ([2]; @1000nM): 15%
remaining binding at 1 µM ([2]; @1000nM, read-out: %Control): 88%
remaining binding at 1 µM ([2]; read-out: %Control @1000nM): 88%
difference in %Control from reference compound Ib at 1 µM ([3]; @1000nM): -22%
remaining binding at 1 µM ([3]; @1000nM, read-out: %Control): 75%
remaining binding at 1 µM ([3]; read-out: %Control @1000nM): 75%
difference in %Control versus reference compound Ib at 1 µM ([4]; @1000nM): 42.8%
remaining binding at 1 µM ([4]; @1000nM, read-out: %Control): 43%
remaining binding at 1 µM ([4]; read-out: %Control @1000nM): 43%
inhibition at 1 µM [4]: 57%
%Control @1000nM [5]: 74%
% difference (compound - Ib %Control) [5]: 71.4%
%Control [5]: 74%
difference in % of control versus compound Ib at 1 µM ([6]; @1000nM): 77%
remaining binding at 1 µM ([6]; @1000nM, read-out: %Control): 87%
remaining binding at 1 µM ([6]; read-out: %Control @1000nM): 87%
difference in %Control from compound Ib at 1 µM ([7]; @1000nM): 4%
remaining binding at 1 µM ([7]; @1000nM, read-out: %Control): 100%
remaining binding at 1 µM ([7]; read-out: %Control @1000nM): 100%
difference in %Control from compound Ib at 1 µM ([8]; @1000nM): 53%
remaining binding at 1 µM ([8]; @1000nM, read-out: %Control): 86%
remaining binding at 1 µM ([8]; read-out: %Control @1000nM): 86%
difference in %Control vs compound Ib at 1 µM ([9]; @1000nM): 41%
remaining binding at 1 µM ([9]; @1000nM, read-out: %Control): 80%
remaining binding at 1 µM ([9]; read-out: %Control @1000nM): 80%
difference in %Control versus compound Ib at 1 µM ([10]; @1000nM): 50%
remaining binding at 1 µM ([10]; @1000nM, read-out: %Control): 90%
remaining binding at 1 µM ([10]; read-out: %Control @1000nM): 90%
remaining binding at 1 µM ([11]; @1000nM, read-out: %Control): 73%
remaining binding at 1 µM ([11]; read-out: %Control @1000nM): 73%
remaining binding at 1 µM ([12]; @1000nM, read-out: %Control): 98%
remaining binding at 1 µM ([12]; read-out: %Control @1000nM): 98%
difference in %Control versus compound Ib at 1 µM ([13]; @1000nM): -15%
remaining binding at 1 µM ([13]; @1000nM, read-out: %Control): 77%
remaining binding at 1 µM ([13]; read-out: %Control @1000nM): 77%

CNC(=O)c1cnc(S(C)(=O)=O)nc1N1CCCC(n2nc(-c3ccc(Oc4ccccc4)cc3)c3c(N)ncnc32)C1 (stereo not shown) [Compound 8d, 4-(3-(4-Amino-3-(4-phenoxyphenyl)-1H-pyrazolo[3,4-d]pyrimidin-1-yl)piperidin-1-yl)-N-methyl-2-(methylsulfonyl)pyrimidine-5-carboxamide]
difference in %Control versus compound Ib at 1 µM ([1]; @1000nM): 33%
remaining binding at 1 µM ([1]; @1000nM, read-out: %Control): 85%
remaining binding at 1 µM ([1]; read-out: %Control @1000nM): 85%
difference in %Control from reference compound Ib at 1 µM ([2]; @1000nM): 17%
remaining binding at 1 µM ([2]; @1000nM, read-out: %Control): 90%
remaining binding at 1 µM ([2]; read-out: %Control @1000nM): 90%
difference in %Control from reference compound Ib at 1 µM ([3]; @1000nM): -15%
remaining binding at 1 µM ([3]; @1000nM, read-out: %Control): 82%
remaining binding at 1 µM ([3]; read-out: %Control @1000nM): 82%
difference in %Control versus reference compound Ib at 1 µM ([4]; @1000nM): 16.8%
remaining binding at 1 µM ([4]; @1000nM, read-out: %Control): 17%
remaining binding at 1 µM ([4]; read-out: %Control @1000nM): 17%
inhibition at 1 µM [4]: 83%
%Control @1000nM [5]: 30%
% difference (compound - Ib %Control) [5]: 27.4%
%Control [5]: 30%
difference in % of control versus compound Ib at 1 µM ([6]; @1000nM): 49%
remaining binding at 1 µM ([6]; @1000nM, read-out: %Control): 59%
remaining binding at 1 µM ([6]; read-out: %Control @1000nM): 59%
difference in %Control from compound Ib at 1 µM ([7]; @1000nM): 4%
remaining binding at 1 µM ([7]; @1000nM, read-out: %Control): 100%
remaining binding at 1 µM ([7]; read-out: %Control @1000nM): 100%
difference in %Control from compound Ib at 1 µM ([8]; @1000nM): 45%
remaining binding at 1 µM ([8]; @1000nM, read-out: %Control): 78%
remaining binding at 1 µM ([8]; read-out: %Control @1000nM): 78%
difference in %Control vs compound Ib at 1 µM ([9]; @1000nM): 35%
remaining binding at 1 µM ([9]; @1000nM, read-out: %Control): 74%
remaining binding at 1 µM ([9]; read-out: %Control @1000nM): 74%
difference in %Control versus compound Ib at 1 µM ([10]; @1000nM): 47%
remaining binding at 1 µM ([10]; @1000nM, read-out: %Control): 87%
remaining binding at 1 µM ([10]; read-out: %Control @1000nM): 87%
remaining binding at 1 µM ([11]; @1000nM, read-out: %Control): 63%
remaining binding at 1 µM ([11]; read-out: %Control @1000nM): 63%
remaining binding at 1 µM ([12]; @1000nM, read-out: %Control): 100%
remaining binding at 1 µM ([12]; read-out: %Control @1000nM): 100%
difference in %Control versus compound Ib at 1 µM ([13]; @1000nM): -5%
remaining binding at 1 µM ([13]; @1000nM, read-out: %Control): 87%
remaining binding at 1 µM ([13]; read-out: %Control @1000nM): 87%
